Counter-ions that a name gives are not always drawn. Values belong to the molecule of their own block, whether it stands above or below them.
Assays:
[1] = cited from earlier work
[2] = hydrochloride salt, cited from earlier work
IOP = settings: cited from earlier work; for efficiency in decreasing the 24-h IOP: compared with agents that decrease AH production
[3] = In vitro delivery of drug from ocular inserts in a humidified Franz-diffusion cell, artificial lachrymal fluid receiver, HPLC; type: physicochemical
Source text: Delivery is monitored in vitro using a Franz-diffusion cell, with the insert in contact with a dialysis membrane to provide support. A membrane with an appropriate molecular weight cut-off is used to allow the passage of pharmaceutical product but not polymer. The receiver solution is an artificial lachrymal fluid, containing NaHCO3 2.2 g/l; NaCl 6.26 g/l; KCl 1.79 g/l; CaCl2.2H2O 0.0735 g/l; MgCl2.6H2O 0.0964 g/l in distilled water (pH to 7.5 with 0.1 M HCl). The temperature used in the diffusion cells is controlled so the internal temperature is 32° C. (the temperature of the corneal surface). The tops of the diffusion cells are sealed using parafilm and the system equilibrated overnight (to give a humid environment). The insert is weighed, then placed on the dialysis membrane and resealed. Samples of delivered pharmaceutical product are removed from the receiver fluid and replaced with fresh liquid to maintain a constant volume. Pharmaceutical product in the receiver fluid is analysed by HPLC. Samples of 1 ml are withdrawn and replaced at given intervals through the side arm. The insert is placed in the donor at time 0. Samples were analysed using HPLC methods described above. It is recommended that betaxolol is analysed within 24 h, or samples frozen. The quantity of drug which has been released at any given time can be calculated using the following equation: […] wherein: Vr is the volume of receiver (ml) Vs the sample volume C[n] is the concentration in the dissolution medium (mg/l) ΣC[m] is the sum total of previous concentrations (mg/l) Mt is the drug released at time t (mg)

[4] = cited from earlier work; remark: listed apart in the source

Structure (SMILES): O=C(O)CCC/C=C\C[C@@H]1[C@@H](CC[C@@H](O)CCc2ccccc2)[C@H](O)C[C@@H]1O [latanoprost acid]
half-life in aqueous humor [1]: 2.8 h

Structure (SMILES): CC(C)NCC(O)COc1ccc(CCOCC2CC2)cc1 (stereo not shown) [Betaxolol]
time of maximum effect ([2]; after topical administration): about 2 hours | onset of action ([2]; topical administration): ≤ 30 min

timolol released by 6 hours from the beginning of the experiment ([3]; laminated travoprost/timolol insert, 6 hours): over 90% | timolol released for the first 5 hours ([3]; laminated travoprost/timolol insert, first 5 hours): essentially no timolol was released
Structure (SMILES): CC(C)(C)NC[C@H](O)COc1nsnc1N1CCOCC1 [timolol, timolol maleate]
capacity in decreasing IOP at night (IOP; night): reduced capacity in decreasing IOP at night

Structure (SMILES): CCNC(=O)CCC/C=C\C[C@@H]1[C@@H](/C=C/[C@@H](O)CCc2ccccc2)[C@H](O)C[C@@H]1O [bimatoprost]
efficiency in decreasing the 24-h IOP (IOP): more efficient in decreasing the 24-h IOP

Structure (SMILES): CC(C)OC(=O)CCC/C=C\C[C@@H]1[C@@H](CC[C@@H](O)CCc2ccccc2)[C@H](O)C[C@@H]1O [latanoprost]
solubility in acetone and ethanol ([4]; acetone and ethanol): soluble | solubility in water ([4]; water): insoluble | efficiency in decreasing the 24-h IOP (IOP): more efficient in decreasing the 24-h IOP

period over which travoprost was released at a substantially constant rate ([3]; laminated travoprost/timolol insert, humidity, 32° C., FIG. 5): about 8 hours | period over which travoprost was released at a substantially-constant rate ([3]; single layer PEO insert with 10% carbopol, travoprost alone, humidity, 32° C., FIG. 4): about 8 hours
Structure (SMILES): CC(C)OC(=O)CCC/C=C\C[C@@H]1[C@@H](/C=C/[C@@H](O)COc2cccc(C(F)(F)F)c2)[C@H](O)C[C@@H]1O [travoprost]
efficiency in decreasing the 24-h IOP (IOP): more efficient in decreasing the 24-h IOP
